Source: publication PMC3394710, “Insight into Temperature Dependence of GTPase Activity in Human Guanylate Binding Protein-1” (PLoS ONE, 2012)
Where a chain is given by its changes, count along the chain named.

Legend:
Experiment in all cases: thermal denaturation, tryptophan fluorescence
[1] = biological target: T1, human guanylate binding protein-1 (hGBP1, wild type whGBP1) (Homo sapiens, UniProt P32455); settings: 0.5 µM protein, 20 mM Tris-HCl pH 7.5, 100 mM KCl, 5 mM MgCl2, Tm of free protein in the 2nd table, row 6
T1 construct: gene GBP1; purified as in earlier work
T1 sequence (P32455 1-592): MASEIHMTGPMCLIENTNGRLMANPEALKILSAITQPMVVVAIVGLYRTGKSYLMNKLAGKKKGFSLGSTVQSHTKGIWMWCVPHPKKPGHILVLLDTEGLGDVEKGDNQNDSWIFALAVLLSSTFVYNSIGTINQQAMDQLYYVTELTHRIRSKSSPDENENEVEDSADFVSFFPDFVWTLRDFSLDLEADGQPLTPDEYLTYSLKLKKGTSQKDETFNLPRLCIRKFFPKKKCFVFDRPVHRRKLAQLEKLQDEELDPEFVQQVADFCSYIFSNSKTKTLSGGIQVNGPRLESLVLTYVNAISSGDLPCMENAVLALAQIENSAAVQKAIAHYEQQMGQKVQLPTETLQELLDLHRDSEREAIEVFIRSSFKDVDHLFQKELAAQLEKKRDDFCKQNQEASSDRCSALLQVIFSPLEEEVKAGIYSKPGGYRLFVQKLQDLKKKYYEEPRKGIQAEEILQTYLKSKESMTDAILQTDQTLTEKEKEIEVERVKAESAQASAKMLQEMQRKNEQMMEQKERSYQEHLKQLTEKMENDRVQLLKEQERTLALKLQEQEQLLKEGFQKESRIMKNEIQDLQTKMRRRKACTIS
Text: thermal denaturation, tryptophan fluorescence on human guanylate binding protein-1 (hGBP1, wild type whGBP1)

[2] = biological target: T2, human guanylate binding protein-1 (hGBP1, wild type whGBP1) (Homo sapiens, UniProt P32455, E313A); settings: 37 °C; 5 mM MgCl2, 100 mM KCl, pH 7.5; ΔCp assumed as in wild type
T2 construct: gene GBP1; purified as in earlier work
T2 sequence (P32455 1-592 E313A): T1 sequence (P32455 1-592) with E313A

[3] = biological target: T3, human guanylate binding protein-1 (hGBP1, wild type whGBP1) (Homo sapiens, UniProt P32455, S157A); settings: 37 °C; 5 mM MgCl2, 100 mM KCl, pH 7.5; ΔCp assumed as in wild type
T3 construct: gene GBP1; purified as in earlier work
T3 sequence (P32455 1-592 S157A): T1 sequence (P32455 1-592) with S157A

Row | Heat-induced unfolding / T m / (K) ([1]; 500 µM GDP) | difference in ΔG D between analogue free and bound protein [2] [kcal/mol] | Heat-induced unfolding / T m / (K) ([1]; 100 µM GppNHp) | difference in ΔG D between analogue free and bound protein [3] [kcal/mol] | Compound
1 | 319.9 ± 0.4 |  |  |  | Nc1nc2c(ncn2[C@@H]2O[C@H](COP(=O)(O)OP(=O)(O)O)[C@@H](O)[C@H]2O)c(=O)[nH]1 [GDP]
2 |  | 2.4 | 325.2 ± 0.2 | 0.9 | Nc1nc2c(ncn2[C@@H]2O[C@H](COP(=O)(O)OP(=O)(O)NP(=O)(O)O)[C@@H](O)[C@H]2O)c(=O)[nH]1 [GppNHp]
